Assay results as given in ChEMBL document CHEMBL3046781, “Resistance of Helicoverpa assulta (Guenée) (Lepidoptera: Noctuidae) to fenvalerate, phoxim and methomyl in China” (2009).

How the values were obtained:
Type in all cases: functional
[1] = test system: Helicoverpa assulta; experiment: Resistance factor, ratio of LD50 for sixth-instar larvae of Helicoverpa assulta HN2 to LD50 for sixth-instar larvae of Helicoverpa assulta at 39 to 12630 mg/l
[2] = test system: Helicoverpa assulta; experiment: Insecticidal activity against sixth-instar larvae of Helicoverpa assulta YN8 at 39 to 12630 mg/l after 48 hr by chi-squared analysis
[3] = test system: Helicoverpa assulta; experiment: Resistance factor, ratio of LD50 for sixth-instar larvae of Helicoverpa assulta SD2 to LD50 for sixth-instar larvae of Helicoverpa assulta at 39 to 12630 mg/l
[4] = test system: Helicoverpa assulta; experiment: Insecticidal activity against sixth-instar larvae of Helicoverpa assulta FJ2 at 39 to 12630 mg/l after 48 hr by chi-squared analysis
[5] = test system: Helicoverpa assulta; experiment: Resistance factor, ratio of LD50 for sixth-instar larvae of Helicoverpa assulta HB2 to LD50 for sixth-instar larvae of Helicoverpa assulta at 39 to 12630 mg/l
[6] = test system: Helicoverpa assulta; experiment: Insecticidal activity against sixth-instar larvae of Helicoverpa assulta AH2 at 39 to 12630 mg/l after 48 hr by chi-squared analysis
[7] = test system: Helicoverpa assulta; experiment: Resistance factor, ratio of LD50 for sixth-instar larvae of Helicoverpa assulta GZ4 to LD50 for sixth-instar larvae of Helicoverpa assulta at 39 to 12630 mg/l
[8] = test system: Helicoverpa assulta; experiment: Insecticidal activity against sixth-instar larvae of Helicoverpa assulta YN5 at 39 to 12630 mg/l after 48 hr by chi-squared analysis
[9] = test system: Helicoverpa assulta; experiment: Resistance factor, ratio of LD50 for sixth-instar larvae of Helicoverpa assulta SD1 to LD50 for sixth-instar larvae of Helicoverpa assulta at 39 to 12630 mg/l
[10] = test system: Helicoverpa assulta; experiment: Resistance factor, ratio of LD50 for sixth-instar larvae of Helicoverpa assulta YN2 to LD50 for sixth-instar larvae of Helicoverpa assulta at 39 to 12630 mg/l
[11] = test system: Helicoverpa assulta; experiment: Resistance factor, ratio of LD50 for sixth-instar larvae of Helicoverpa assulta YN7 to LD50 for sixth-instar larvae of Helicoverpa assulta at 1.8 to 183360 mg/l
[12] = test system: Helicoverpa assulta; experiment: Insecticidal activity against sixth-instar larvae of Helicoverpa assulta GZ3 at 1.8 to 183360 mg/l after 48 hr by chi-squared analysis
[13] = test system: Helicoverpa assulta; experiment: Insecticidal activity against sixth-instar larvae of Helicoverpa assulta YN2 at 1.8 to 183360 mg/l after 48 hr by chi-squared analysis
[14] = test system: Helicoverpa assulta; experiment: Insecticidal activity against sixth-instar larvae of Helicoverpa assulta GZ5 at 1.8 to 183360 mg/l after 48 hr by chi-squared analysis
[15] = test system: Helicoverpa assulta; experiment: Insecticidal activity against sixth-instar larvae of Helicoverpa assulta GZ1 at 1.8 to 183360 mg/l after 48 hr by chi-squared analysis
[16] = test system: Helicoverpa assulta; experiment: Resistance factor, ratio of LD50 for sixth-instar larvae of Helicoverpa assulta GZ5 to LD50 for sixth-instar larvae of Helicoverpa assulta at 1.8 to 183360 mg/l
[17] = test system: Helicoverpa assulta; experiment: Insecticidal activity against sixth-instar larvae of Helicoverpa assulta YN7 at 1.8 to 183360 mg/l after 48 hr by chi-squared analysis
[18] = test system: Helicoverpa assulta; experiment: Resistance factor, ratio of LD50 for sixth-instar larvae of Helicoverpa assulta YN6 to LD50 for sixth-instar larvae of Helicoverpa assulta at 1.8 to 183360 mg/l
[19] = test system: Helicoverpa assulta; experiment: Insecticidal activity against sixth-instar larvae of Helicoverpa assulta YN1 at 1.8 to 183360 mg/l after 48 hr by chi-squared analysis
[20] = test system: Helicoverpa assulta; experiment: Insecticidal activity against sixth-instar larvae of Helicoverpa assulta FJ3 at 21 to 3390 mg/l after 48 hr by chi-squared analysis
[21] = test system: Helicoverpa assulta; experiment: Resistance factor, ratio of LD50 for sixth-instar larvae of Helicoverpa assulta HB1 to LD50 for sixth-instar larvae of Helicoverpa assulta at 21 to 3390 mg/l
[22] = test system: Helicoverpa assulta; experiment: Insecticidal activity against sixth-instar larvae of Helicoverpa assulta YN1 at 21 to 3390 mg/l after 48 hr by chi-squared analysis
[23] = test system: Helicoverpa assulta; experiment: Resistance factor, ratio of LD50 for sixth-instar larvae of Helicoverpa assulta SD2 to LD50 for sixth-instar larvae of Helicoverpa assulta at 21 to 3390 mg/l
[24] = test system: Helicoverpa assulta; experiment: Resistance factor, ratio of LD50 for sixth-instar larvae of Helicoverpa assulta AH1 to LD50 for sixth-instar larvae of Helicoverpa assulta at 21 to 3390 mg/l
[25] = test system: Helicoverpa assulta; experiment: Resistance factor, ratio of LD50 for sixth-instar larvae of Helicoverpa assulta GZ4 to LD50 for sixth-instar larvae of Helicoverpa assulta at 21 to 3390 mg/l
[26] = test system: Helicoverpa assulta; experiment: Insecticidal activity against sixth-instar larvae of Helicoverpa assulta HN1 at 21 to 3390 mg/l after 48 hr by chi-squared analysis
[27] = test system: Helicoverpa assulta; experiment: Insecticidal activity against sixth-instar larvae of Helicoverpa assulta HN2 at 21 to 3390 mg/l after 48 hr by chi-squared analysis
[28] = test system: Helicoverpa assulta; experiment: Insecticidal activity against sixth-instar larvae of Helicoverpa assulta YN2 at 21 to 3390 mg/l after 48 hr by chi-squared analysis
[29] = test system: Helicoverpa assulta; experiment: Resistance factor, ratio of LD50 for sixth-instar larvae of Helicoverpa assulta YN5 to LD50 for sixth-instar larvae of Helicoverpa assulta at 21 to 3390 mg/l
[30] = test system: Helicoverpa assulta; experiment: Resistance factor, ratio of LD50 for sixth-instar larvae of Helicoverpa assulta HN1 to LD50 for sixth-instar larvae of Helicoverpa assulta at 21 to 3390 mg/l
[31] = test system: Helicoverpa assulta; experiment: Insecticidal activity against sixth-instar larvae of Helicoverpa assulta YN7 at 21 to 3390 mg/l after 48 hr by chi-squared analysis
[32] = test system: Helicoverpa assulta; experiment: Insecticidal activity against sixth-instar larvae of Helicoverpa assulta YN8 at 21 to 3390 mg/l after 48 hr by chi-squared analysis
[33] = test system: Helicoverpa assulta; experiment: Insecticidal activity against sixth-instar larvae of Helicoverpa assulta AH2 at 21 to 3390 mg/l after 48 hr by chi-squared analysis
[34] = test system: Helicoverpa assulta; experiment: Insecticidal activity against sixth-instar larvae of Helicoverpa assulta GZ3 at 21 to 3390 mg/l after 48 hr by chi-squared analysis
[35] = test system: Helicoverpa assulta; experiment: Insecticidal activity against sixth-instar larvae of Helicoverpa assulta GZ1 at 21 to 3390 mg/l after 48 hr by chi-squared analysis

`CCOP(=S)(OCC)O/N=C(\C#N)c1ccccc1` [PHOXIM] gave a Ratio [1] of 3.51, an LD90 [2] of 105 µg/g and an LD50 ([2]; Helicoverpa assulta, YN8, 48 h) of 40.3 mg/kg. It also gave a Ratio [3] of 7.37, an LD90 [4] of 86.5 µg/g and an LD50 ([4]; Helicoverpa assulta, FJ2, 48 h) of 22 mg/kg. The Ratio [5] was 5.04, the LD90 [6] was 33.5 µg/g and the LD50 ([6]; Helicoverpa assulta, AH2, 48 h) was 16.7 mg/kg. For the same compound, the Ratio [7] was 7.89, the LD90 [8] was 83.8 µg/g and the LD50 ([8]; Helicoverpa assulta, YN5, 48 h) was 25.7 mg/kg. It also gave a Ratio [9] of 5.09 and a Ratio [10] of 14.9.
Work on `CC(C)C(C(=O)OC(C#N)c1cccc(Oc2ccccc2)c1)c1ccc(Cl)cc1` (stereo not given) [FENVALERATE] yielded a Ratio [11] of 1537, an LD90 [12] of 725 µg/g and an LD50 ([12]; Helicoverpa assulta, GZ3, 48 h) of 133 mg/kg. The LD90 [13] was 673 µg/g, the LD50 ([13]; Helicoverpa assulta, YN2, 48 h) was 213 mg/kg and the LD90 [14] was 74.2 µg/g. The LD50 ([14]; Helicoverpa assulta, GZ5, 48 h) was 30.6 mg/kg, the LD90 [15] was 1043 µg/g and the LD50 ([15]; Helicoverpa assulta, GZ1, 48 h) was 301 mg/kg. For the same compound, the Ratio [16] was 189, the LD90 [17] was 507 µg/g and the LD50 ([17]; Helicoverpa assulta, YN7, 48 h) was 249 mg/kg. For the same compound, the Ratio [18] was 4115, the LD90 [19] was 4059 µg/g and the LD50 ([19]; Helicoverpa assulta, YN1, 48 h) was 1360 mg/kg.
In the case of `CNC(=O)ON=C(C)SC` [METHOMYL], the LD90 [20] is reported as 137 µg/g, the LD50 ([20]; Helicoverpa assulta, FJ3, 48 h) is reported as 23.6 mg/kg and the Ratio [21] is reported as 8.45. For the same compound, the LD90 [22] was 225 µg/g, the LD50 ([22]; Helicoverpa assulta, YN1, 48 h) was 45.6 mg/kg and the Ratio [23] was 6.17. The Ratio [24] was 37.1, the Ratio [25] was 11.5 and the LD90 [26] was 34 µg/g. It also gave an LD50 ([26]; Helicoverpa assulta, HN1, 48 h) of 6.48 mg/kg, an LD90 [27] of 24.2 µg/g and an LD50 ([27]; Helicoverpa assulta, HN2, 48 h) of 4.24 mg/kg. It also gave an LD90 [28] of 84.1 µg/g, an LD50 ([28]; Helicoverpa assulta, YN2, 48 h) of 26.6 mg/kg and a Ratio [29] of 9.87. The Ratio [30] was 4.48, the LD90 [31] was 143 µg/g and the LD50 ([31]; Helicoverpa assulta, YN7, 48 h) was 39 mg/kg. For the same compound, the LD90 [32] was 185 µg/g, the LD50 ([32]; Helicoverpa assulta, YN8, 48 h) was 33.3 mg/kg and the LD90 [33] was 59.6 µg/g. It also gave an LD50 ([33]; Helicoverpa assulta, AH2, 48 h) of 22.1 mg/kg, an LD90 [34] of 66.7 µg/g and an LD50 ([34]; Helicoverpa assulta, GZ3, 48 h) of 20.8 mg/kg. The LD90 [35] was 131 µg/g and the LD50 ([35]; Helicoverpa assulta, GZ1, 48 h) was 41.8 mg/kg.
